This is an account of results in patent publication US12404241B2 (Celgene Corporation, priority 2018, dated 2025).

Counter-ions that a name gives are not always drawn. Where only a bound is given, the exact number is not on record here.

This assay addresses T1, AR (Homo sapiens, UniProt P10275).
T1 construct: endogenous in cells; host or cells: VCaP cells
T1 sequence (P10275 1-920): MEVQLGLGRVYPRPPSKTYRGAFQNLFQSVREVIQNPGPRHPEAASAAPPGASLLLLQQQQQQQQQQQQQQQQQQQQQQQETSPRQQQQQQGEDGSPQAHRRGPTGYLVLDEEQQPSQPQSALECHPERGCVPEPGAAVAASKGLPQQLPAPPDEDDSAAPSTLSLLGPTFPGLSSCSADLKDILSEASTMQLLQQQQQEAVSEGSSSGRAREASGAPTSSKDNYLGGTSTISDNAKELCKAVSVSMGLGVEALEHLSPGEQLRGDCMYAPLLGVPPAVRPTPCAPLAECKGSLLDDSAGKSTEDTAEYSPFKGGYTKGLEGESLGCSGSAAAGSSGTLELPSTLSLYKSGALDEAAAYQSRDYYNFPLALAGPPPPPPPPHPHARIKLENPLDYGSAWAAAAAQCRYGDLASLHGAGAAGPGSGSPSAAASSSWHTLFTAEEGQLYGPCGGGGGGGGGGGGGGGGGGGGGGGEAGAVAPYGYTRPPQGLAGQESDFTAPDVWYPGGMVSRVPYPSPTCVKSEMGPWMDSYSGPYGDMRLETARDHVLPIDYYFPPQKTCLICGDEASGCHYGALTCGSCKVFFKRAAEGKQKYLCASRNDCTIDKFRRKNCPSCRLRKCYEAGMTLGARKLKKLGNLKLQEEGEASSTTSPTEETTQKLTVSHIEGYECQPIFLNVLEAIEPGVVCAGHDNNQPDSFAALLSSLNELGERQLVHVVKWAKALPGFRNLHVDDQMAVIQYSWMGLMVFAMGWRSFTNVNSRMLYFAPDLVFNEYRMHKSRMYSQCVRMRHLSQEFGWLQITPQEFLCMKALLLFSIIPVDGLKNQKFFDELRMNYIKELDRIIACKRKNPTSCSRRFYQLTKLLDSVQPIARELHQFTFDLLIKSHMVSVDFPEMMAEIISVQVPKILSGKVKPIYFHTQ
Description: VCAP AR Degradation Assay. To be noted: for Y (AR degradation efficiency, % of DMSO control): class symbols *; for DC50: class symbols A-C, read-out: DC50. The class given is cell-based. In a few lines: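 AR protein in lysates quantified by sandwich ELISA after 24 h exposure of VCaP cells at 37 °C to 10 concentrations (1:3 steps, 5 μM top, final). Four-parameter logistic fit of percent-of-DMSO levels gave DC50 (50% degradation), EC50 and minimal AR level Y.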

By DC50 is commonly meant the concentration at which degradation of the target reaches its halfway point. For the compound `CCc1cc(N2C(=S)N(c3cnc(C#N)c(C(F)(F)F)c3)C(=O)C2(C)C)ccc1OCCN1CCN(CC(=O)Nc2cccc(NC3CCC(=O)NC3=O)c2)CC1` (centres unmarked) [Example 22, hydrochloride], the “Y (AR degradation efficiency, % of DMSO control)” value is recorded as “* (0<Y<=25%)” and the DC50 is less than 100 nM.

In the case of `CC(C)c1cc(N2C(=S)N(c3ccc(C#N)c(C(F)(F)F)c3)C(=O)C2(C)C)ccc1OCCN1C[C@@H](C)N(CC(=O)Nc2cc(F)cc(NC3CCC(=O)NC3=O)c2)[C@@H](C)C1` (stereo partly drawn) [Example 213, 2-((2S,6R)-4-(2-(4-(3-(4-cyano-3-(trifluoromethyl)phenyl)-5,5-dimethyl-4-oxo-2-thioxoimidazolidin-1-yl)-2-isopropylphenoxy)ethyl)-2,6-dimethylpiperazin-1-yl)-N-(3-(2,6-dioxopiperidin-3-ylamino)-5-fluorophenyl)acetamide], the “Y (AR degradation efficiency, % of DMSO control)” value was “* (0<Y<=25%)” and the DC50 was less than 100 nM.

Consider `CCc1cc(N2C(=S)N(c3cnc(C#N)c(C(F)(F)F)c3)C(=O)C2(C)C)ccc1OCCN1CCN([C@H](C)C(=O)Nc2cc(F)cc(NC3CCC(=O)NC3=O)c2)CC1` (stereo partly drawn) [Example 117, (2R)-2-(4-(2-(4-(3-(6-cyano-5-(trifluoromethyl)pyridin-3-yl)-5,5-dimethyl-4-oxo-2-thioxoimidazolidin-1-yl)-2-ethylphenoxy)ethyl)piperazin-1-yl)-N-(3-(2,6-dioxopiperidin-3-ylamino)-5-fluorophenyl)propanamide], for which the “Y (AR degradation efficiency, % of DMSO control)” value is recorded as “* (0<Y<=25%)” and the DC50 was less than 100 nM.

As to `CC1(C)C(=O)N(c2ccc(C#N)c(C(F)(F)F)c2)C(=S)N1c1ccc(OCCN2CCN(CC(=O)Nc3cccc(NC4CCC(=O)NC4=O)c3)CC2)c(C2CCCC2)c1` (centres unmarked) [Example 39, hydrochloride], the “Y (AR degradation efficiency, % of DMSO control)” value is “** (25%<Y<=35%)” and the DC50 lay in the range of 100 to 500 nM.

With `C[C@@H]1CN(CCOc2ccc(N3C(=S)N(c4ccc(C#N)c(C(F)(F)F)c4)C(=O)C3(C)C)cc2F)C[C@H](C)N1CC(=O)Nc1cccc(NC2CCC(=O)NC2=O)c1` (stereo partly drawn) [Example 278, 2-((2S,6R)-4-(2-(4-(3-(4-cyano-3-(trifluoromethyl)phenyl)-5,5-dimethyl-4-oxo-2-thioxoimidazolidin-1-yl)-2-fluorophenoxy)ethyl)-2,6-dimethylpiperazin-1-yl)-N-(3-(2,6-dioxopiperidin-3-ylamino)phenyl)acetamide], the “Y (AR degradation efficiency, % of DMSO control)” value was “* (0<Y<=25%)” and the DC50 is less than 100 nM.

For the compound `C[C@@H]1CN(CCOc2ccc(N3C(=S)N(c4cnc(C#N)c(C(F)(F)F)c4)C(=O)C3(C)C)cc2CCF)CCN1CC(=O)Nc1cccc(NC2CCC(=O)NC2=O)c1` (stereo partly drawn) [Example 166, 2-((R)-4-(2-(4-(3-(6-cyano-5-(trifluoromethyl)pyridin-3-yl)-5,5-dimethyl-4-oxo-2-thioxoimidazolidin-1-yl)-2-(2-fluoroethyl)phenoxy)ethyl)-2-methylpiperazin-1-yl)-N-(3-(2,6-dioxopiperidin-3-ylamino)phenyl)acetamide], the “Y (AR degradation efficiency, % of DMSO control)” value is “* (0<Y<=25%)” and the DC50 is less than 100 nM.

Consider `CCc1cc(N2C(=S)N(c3ccc(C#N)c(C(F)(F)F)c3)C(=O)C2(C)C)ccc1OCCN1CCN(CC(=O)Nc2cc(C#N)cc(NC3CCC(=O)NC3=O)c2)[C@H](C)C1` (stereo partly drawn) [Example 154, 2-((R)-4-(2-(4-(3-(4-cyano-3-(trifluoromethyl)phenyl)-5,5-dimethyl-4-oxo-2-thioxoimidazolidin-1-yl)-2-ethylphenoxy)ethyl)-2-methylpiperazin-1-yl)-N-(3-cyano-5-(2,6-dioxopiperidin-3-ylamino)phenyl)acetamide], for which the “Y (AR degradation efficiency, % of DMSO control)” value was “* (0<Y<=25%)” and the DC50 is less than 100 nM.

Consider `CCc1cc(N2C(=S)N(c3ccc(C#N)c(C(F)(F)F)c3)C(=O)C2(C)C)cnc1OCCN1C[C@@H](C)N(CC(=O)Nc2cc(Cl)cc(NC3CCC(=O)NC3=O)c2)C[C@H]1C` (stereo partly drawn) [Example 189, N-(3-chloro-5-(2,6-dioxopiperidin-3-ylamino)phenyl)-2-((2R,5R)-4-(2-(5-(3-(4-cyano-3-(trifluoromethyl)phenyl)-5,5-dimethyl-4-oxo-2-thioxoimidazolidin-1-yl)-3-ethylpyridin-2-yloxy)ethyl)-2,5-dimethylpiperazin-1-yl)acetamide], for which the “Y (AR degradation efficiency, % of DMSO control)” value is “* (0<Y<=25%)” and the DC50 is less than 100 nM.

For `CC1(C)C(=O)N(c2ccc(C#N)c(C(F)(F)F)c2)C(=S)N1c1ccc(OCCN2CCN(CC(=O)Nc3cccc(NC4CCC(=O)NC4=O)c3)CC2)c(F)c1` (centres unmarked) [Example 1, formate], the “Y (AR degradation efficiency, % of DMSO control)” value is on record as “*** (35%<Y<50%)” and the DC50 was less than 100 nM.

On to `CCc1cc(N2C(=S)N(c3ccc(C#N)c(C(F)(F)F)c3)C(=O)C2(C)C)ccc1OCCN1C[C@H](C)N(CC(=O)Nc2cc(Cl)cc(NC3CCC(=O)NC3=O)c2)[C@@H](C)C1` (stereo partly drawn) [Example 147, N-(3-chloro-5-(2,6-dioxopiperidin-3-ylamino)phenyl)-2-((2S,6S)-4-(2-(4-(3-(4-cyano-3-(trifluoromethyl)phenyl)-5,5-dimethyl-4-oxo-2-thioxoimidazolidin-1-yl)-2-ethylphenoxy)ethyl)-2,6-dimethylpiperazin-1-yl)acetamide], for which the “Y (AR degradation efficiency, % of DMSO control)” value is recorded as “* (0<Y<=25%)” and the DC50 is less than 100 nM.

As for `CCc1cc(N2C(=S)N(c3cnc(C#N)c(C(F)(F)F)c3)C(=O)C2(C)C)ccc1OCCN1CCN(CC(=O)Nc2cccc(NC3CCC(=O)NC3=O)c2)[C@H](C(F)(F)F)C1` (stereo partly drawn) [Example 201, 2-((S)-4-(2-(4-(3-(6-cyano-5-(trifluoromethyl)pyridin-3-yl)-5,5-dimethyl-4-oxo-2-thioxoimidazolidin-1-yl)-2-ethylphenoxy)ethyl)-2-(trifluoromethyl)piperazin-1-yl)-N-(3-(2,6-dioxopiperidin-3-ylamino)phenyl)acetamide], the “Y (AR degradation efficiency, % of DMSO control)” value is “* (0<Y<=25%)” and the DC50 is less than 100 nM.

Take `CCc1cc(N2C(=S)N(c3cnc(C#N)c(C(F)(F)F)c3)C(=O)C2(C)C)ccc1OCCN1CCN([C@@H](C)C(=O)Nc2cc(Cl)cc(NC3CCC(=O)NC3=O)c2)CC1` (single isomer, unassigned) [Example 114]: the “Y (AR degradation efficiency, % of DMSO control)” value is on record as “* (0<Y<=25%)” and the DC50 is less than 100 nM.

In the case of `CCc1cc(N2C(=S)N(c3ccc(C#N)c(C(F)(F)F)c3)C(=O)C2(C)C)ccc1OCCN1CCN([C@H](C)C(=O)Nc2cccc(NC3CCC(=O)NC3=O)c2)[C@H](C)C1` (stereo partly drawn) [Example 280, (2R)-2-((R)-4-(2-(4-(3-(4-cyano-3-(trifluoromethyl)phenyl)-5,5-dimethyl-4-oxo-2-thioxoimidazolidin-1-yl)-2-ethylphenoxy)ethyl)-2-methylpiperazin-1-yl)-N-(3-(2,6-dioxopiperidin-3-ylamino)phenyl)propanamide], the “Y (AR degradation efficiency, % of DMSO control)” value is given as “*** (35%<Y<50%)” and the DC50 lay within 100 to 500 nM.

As to `CC1(C)C(=O)N(c2cnc(C#N)c(C(F)(F)F)c2)C(=S)N1c1ccc(OCCN2CCN(CC(=O)Nc3cc(Cl)cc(NC4CCC(=O)NC4=O)c3)CC2)c(Cl)c1` (centres unmarked) [Example 14, hydrochloride], the “Y (AR degradation efficiency, % of DMSO control)” value is listed as “* (0<Y<=25%)” and the DC50 was less than 100 nM.

With `C[C@@H]1CN(CCOc2ccc(N3C(=S)N(c4cnc(C#N)c(C(F)(F)F)c4)C(=O)C3(C)C)cc2C2CCC2)C[C@H](C)N1CC(=O)Nc1cccc(NC2CCC(=O)NC2=O)c1` (stereo partly drawn) [Example 268, 2-((2R,6S)-4-(2-(4-(3-(6-cyano-5-(trifluoromethyl)pyridin-3-yl)-5,5-dimethyl-4-oxo-2-thioxoimidazolidin-1-yl)-2-cyclobutylphenoxy)ethyl)-2,6-dimethylpiperazin-1-yl)-N-(3-(2,6-dioxopiperidin-3-ylamino)phenyl)acetamide], the “Y (AR degradation efficiency, % of DMSO control)” value is given as “** (25%<Y<=35%)” and the DC50 was less than 100 nM.

Regarding `CCc1cc(N2C(=S)N(c3cnc(C#N)c(C(F)(F)F)c3)C(=O)C2(C)C)ccc1OCCN1CCN(CC(=O)Nc2cc(NC3CCC(=O)NC3=O)ccc2Cl)CC1` (single isomer, unassigned) [Example 47], the “Y (AR degradation efficiency, % of DMSO control)” value is given as “* (0<Y<=25%)” and the DC50 was less than 100 nM.
